Publication PMC12508460 (Nature Communications, 2025)
Positions count from the first letter of the chain named.

Columns and labels:
WT DP1 = molecular target: T1, WT DP1 (Homo sapiens, UniProt Q13258); assay: Cyclic AMP GloSensor assay
T1 sequence (Q13258 1-359): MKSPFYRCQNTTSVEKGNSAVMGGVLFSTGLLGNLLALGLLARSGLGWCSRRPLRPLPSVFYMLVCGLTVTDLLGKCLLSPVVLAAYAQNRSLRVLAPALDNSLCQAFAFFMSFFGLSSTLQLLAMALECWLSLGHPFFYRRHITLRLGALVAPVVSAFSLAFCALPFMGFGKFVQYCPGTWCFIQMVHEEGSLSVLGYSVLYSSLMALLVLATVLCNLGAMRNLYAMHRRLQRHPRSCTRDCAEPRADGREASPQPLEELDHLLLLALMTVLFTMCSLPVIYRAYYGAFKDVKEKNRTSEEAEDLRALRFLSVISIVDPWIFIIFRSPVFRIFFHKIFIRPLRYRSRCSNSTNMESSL

DP1 R327^8.47A = molecular target: T2, DP1 R327^8.47A (Homo sapiens, UniProt Q13258, R327A); assay: ONE-GO BRET Gs protein activation assay; type: cell-based
T2 sequence (Q13258 1-359 R327A): T1 sequence (Q13258 1-359) with R327A

SMILES	EC50 (WT DP1) [nM]	Effect on basal activity of DP1 in cAMP accumulation assays (WT DP1)	Reduction of the potency of PGD2 by the R327^8.47A mutation (DP1 R327^8.47A)
Cc1cc(OC[C@@H]2CN(C)c3ccccc3O2)cc(C)c1C(=O)Nc1ccc(Cl)c(CC(=O)O)c1 [ONO2550289, (S)-2-(2-chloro-5-(2,6-dimethyl-4-((4-methyl-3,4-dihydro-2H-benzo[b][1,4]oxazin-2-yl)methoxy)benzamido)phenyl)acetic acid]	1.1	fully inhibit the basal activity	
Cc1cc(OC[C@@H]2CN(C)c3ccccc3O2)cc(C)c1C(=O)Nc1ccc(Cl)c(C2(C(=O)O)CC2)c1 [ONO3030297, (S)-1-(2-chloro-5-(2,6-dimethyl-4-((4-methyl-3,4-dihydro-2H-benzo[b][1,4]oxazin-2-yl)methoxy)benzamido)phenyl)cyclopropane-1-carboxylic acid]	1.3	fully inhibit the basal activity	
CCCCC[C@H](O)/C=C/[C@H]1C(=O)C[C@H](O)[C@@H]1C/C=C\CCCC(=O)O [PGD2, Prostaglandin D2]	6.2		over 70 fold
